# Laboratory results as given in PMC7615250 (Cell reports, 2023).
# How the values were obtained:
# SEB-2 = SEB-2 (Caenorhabditis elegans, UniProt P30650); type: cell-based, C. elegans; conditions: n ≥ 6
# NPR-34 = experiment: Aequorin-based calcium mobilization assay; type: cell-based, C. elegans; conditions: CHO/mtAEQ/Gα16 cells expressing NPR-34; aequorin luminescence; n ≥ 6
# SEB-2, sequence (P30650 whole entry, looked up): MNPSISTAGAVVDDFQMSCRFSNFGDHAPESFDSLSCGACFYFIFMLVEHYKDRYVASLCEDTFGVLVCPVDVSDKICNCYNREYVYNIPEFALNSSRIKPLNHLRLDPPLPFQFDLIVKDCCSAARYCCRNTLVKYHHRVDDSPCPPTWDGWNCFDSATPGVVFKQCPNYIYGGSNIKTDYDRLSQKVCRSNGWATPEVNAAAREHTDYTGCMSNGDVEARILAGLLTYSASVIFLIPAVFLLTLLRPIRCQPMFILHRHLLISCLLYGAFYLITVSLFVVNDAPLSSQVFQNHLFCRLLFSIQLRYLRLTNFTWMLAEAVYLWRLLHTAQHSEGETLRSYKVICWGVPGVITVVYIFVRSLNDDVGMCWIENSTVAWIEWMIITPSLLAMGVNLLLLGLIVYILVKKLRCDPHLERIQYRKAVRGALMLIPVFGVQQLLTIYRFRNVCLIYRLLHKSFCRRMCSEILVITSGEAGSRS
Substance,receptor activation (calcium response) (SEB-2),receptor activation (calcium response) (NPR-34)
NRQCLLNAGLSQGCDFSDLLHAQTQARKFMSFAGPamide; C4–C14 (disulfide) [NLP-73],activate,
LDCRKFSFAPACRGIML; C3–C12 (disulfide) [SNET-1],,activate
